Assay results from article PMC8389614, “A Comparison of Acute Pharmacological Effects of Methylone and MDMA Administration in Humans and Oral Fluid Concentrations as Biomarkers of Exposure” (Biology, 2021).

What was measured:
healthy poly-drug users [1] = test: Subjective effects, VESSPA-SSE questionnaire; assay type: in vivo, humans; design: key to VESSPA PS Dunnet’s Test: “a” (times 0–1 h); “b” (times 0–2 h); “c” (times 0–4 h); not significant (NS)
Description: (§1) The study was designed as a non-controlled prospective observational study in a naturalistic setting with methylone and MDMA self-administration. The methodology, including procedures and evaluations, coincides with previous observational–naturalistic studies aimed at evaluating the acute effects of other NPS [38, 39, 40]. Six subjects (5 M, 1 F) self-administered MDMA and 8 subjects (5 M, 3 F) self-administered methylone. Each subject participated only in one session. Participants brought their own substance obtained from an unknown source, which was tested by Energy Control, a harm reduction organization that provides a drug checking service to drug users. Pills containing methylone and MDMA were analyzed by gas chromatography associated with mass spectrometry (GC/MS), a technique that traces the presence of the most frequent drugs of abuse, such as MDMA, cocaine, heroin, amphetamine and methamphetamine, LSD, and multiple NPS (methylone, mephedrone, and other synthetic cathinones, synthetic cannabinoids, tryptamines, among others).
(§2) In both sessions, participants selected the dose of methylone or MDMA according to their previous drug use experience. Doses of methylone could be selected from a range (75–300 mg) that was previously defined according to the consulted literature. The WHO Expert Committee on Drug Dependence (Thirty-Sixth Meeting, Geneva, Switzerland, 16–20 June 2014) established that 60 mg of methylone was the threshold dose and doses over 250 mg were often related to very strong activity. Some users have reported uses of 300 mg of methylone as a common dose [www.erowid.org] (accessed on 15 June 2021). The mean of the selected doses of MDMA was 87.50 mg (3 subjects ingested 75 mg (2 males and 1 female), 3 males 100 mg). In the other study session, methylone doses ranged from 100 to 300 mg, with a mean of 187.50 mg. Based on their dose selection, 1 male ingested 100 mg, 2 subjects 150 mg (1 male and 1 female), 4 subjects 200 mg (2 males and 2 females), and 1 male 300 mg.
(§3) The sessions were conducted in a naturalistic setting. Participants were allowed to talk, read, listen to music, or play games, except during the evaluation times. However, they were asked to refrain from talking about the effects of the substance. All the subjects were evaluated simultaneously at baseline, 1, 2, and 4 h after administration of methylone or MDMA, which occurred approximately at 16:00 h. At each time point, evaluations were followed in a specific order: physiological effects, oral fluid collection, and subjective effects scales and questionnaires.
(§4) Subjective effects were evaluated at baseline, 1, 2, and 4 h after self-administration using visual analogue scales (VAS), the Addiction Research Center Inventory (ARCI), and the Evaluation of Subjective Effects of Substances with Abuse Potential questionnaire (VESSPA-SSE).
The VESSPA-SSE is a questionnaire sensitive to subjective effects related to stimulants such as MDMA that includes six subscales: sedation (S), psychosomatic anxiety (ANX), changes in perception (CP), pleasure and sociability (SOC), activity and energy (ACT), and psychotic symptoms (PS).
Vital signs (SBP, DBP, and HR) and subjective effects (VAS, ARCI, and VESSPA-SSE) were baseline-adjusted. Maximum effects and the time in which maximum effects appeared were determined, and the area under the curve (AUC0–4h) was calculated with the trapezoidal rule.
Thirdly, to find possible significant changes from baseline, a Dunnett multiple comparison test was conducted to compare each time point with baseline in both drug conditions (0–1 h, 0–2 h, 0–4 h).

healthy poly-drug users [2] = test: Subjective effects, visual analogue scales (VAS); assay type: in vivo, humans; design: key to VAS stimulated Dunnet’s Test / VAS change in lights Dunnet’s Test / VAS different body feeling Dunnet’s Test / VAS different surrounding Dunnet’s Test / VAS dizziness Dunnet’s Test / VAS headache Dunnet’s Test / VAS face flushing Dunnet’s Test: “a” (times 0–1 h); “b” (times 0–2 h); “c” (times 0–4 h); not significant (NS)
Description: as §1, §2, §3, §4
Visual analogue scales (100 mm, from “not at all” to “extremely”) contained 30 items that subjects were asked to rate, such as: intensity, stimulated, high, good effects, liking, happiness, drunkenness, changes in colors, changes in shapes, changes in lights, hallucinations (seeing lights or spots), hallucinations (seeing of animals), changes in hearing, hallucinations (hearing sounds or voices), different or changed body feeling, unreal body feeling, changes in distances, different surroundings, unreal surroundings, confusion, fear, depression or sadness, drowsiness, dizziness, bad effects, headache, sickness, vertigo, shortness of breath, and face flushing.
Vital signs (SBP, DBP, and HR) and subjective effects (VAS, ARCI, and VESSPA-SSE) were baseline-adjusted. Maximum effects and the time in which maximum effects appeared were determined, and the area under the curve (AUC0–4h) was calculated with the trapezoidal rule. […]

[3] = oral, methylone 100–300 mg n=8, MDMA 75–100 mg n=6, baseline-adjusted, mean ± SD
[4] = time points significantly different from baseline

CNC(C)Cc1ccc2c(c1)OCO2 (centres unmarked) [MDMA, 3,4-methylenedioxymethamphetamine]
VESSPA ACT (activity and energy) AUC0–4h (healthy poly-drug users [1]; [3]): 32.58 ± 15.71
VESSPA ACT (activity and energy) Emax (healthy poly-drug users [1]; [3]): 13.33 ± 4.84 score
VESSPA ANX (psychosomatic anxiety) AUC0–4h (healthy poly-drug users [1]; [3]): 16.50 ± 8.82
VESSPA ANX (psychosomatic anxiety) Emax (healthy poly-drug users [1]; [3]): 6.67 ± 4.37 score
VESSPA PS (psychotic symptoms) AUC0–4h (healthy poly-drug users [1]; [3]): 2.25 ± 2.36
VESSPA PS (psychotic symptoms) Emax (healthy poly-drug users [1]; [3]): 1.33 ± 1.21 score
VESSPA S (sedation) AUC0–4h (healthy poly-drug users [1]; [3]): 5.92 ± 6.09
VESSPA S (sedation) Emax (healthy poly-drug users [1]; [3]): 2.83 ± 2.23 score
VESSPA SOC (pleasure and sociability) AUC0–4h (healthy poly-drug users [1]; [3]): 38.67 ± 17.84
VESSPA SOC (pleasure and sociability) Emax (healthy poly-drug users [1]; [3]): 14.50 ± 5.96 score
VESSPA ACT Dunnet’s Test (healthy poly-drug users [1]; [4]): a, b
VESSPA ANX Dunnet’s Test (healthy poly-drug users [1]; [4]): a, b
VESSPA PS Dunnet’s Test (healthy poly-drug users [1]; [4]): NS
VESSPA S Dunnet’s Test (healthy poly-drug users [1]; [4]): a, c
VESSPA SOC Dunnet’s Test (healthy poly-drug users [1]; [4]): a, b
Time at which subjective effects in general reached maximum values (healthy poly-drug users [2]; oral, VAS, ARCI, VESSPA-SSE overall): 1.5 h
VAS change in lights AUC0–4h (healthy poly-drug users [2]; [3]): 40.00 ± 53.35
VAS change in lights Emax (healthy poly-drug users [2]; [3]): 20.00 ± 25.11 mm
VAS content AUC0–4h (healthy poly-drug users [2]; [3]): 186.25 ± 52.39
VAS content Emax (healthy poly-drug users [2]; [3]): 74.50 ± 18.96 mm
VAS different body feeling AUC0–4h (healthy poly-drug users [2]; [3]): 95.25 ± 53.40
VAS different body feeling Emax (healthy poly-drug users [2]; [3]): 50.33 ± 22.59 mm
VAS different surrounding AUC0–4h (healthy poly-drug users [2]; [3]): 27.33 ± 39.71
VAS different surrounding Emax (healthy poly-drug users [2]; [3]): 17.33 ± 17.68 mm
VAS dizziness AUC0–4h (healthy poly-drug users [2]; [3]): 20.17 ± 20.68
VAS dizziness Emax (healthy poly-drug users [2]; [3]): 13.00 ± 9.84 mm
VAS face flushing AUC0–4h (healthy poly-drug users [2]; [3]): 89.33 ± 58.31
VAS face flushing Emax (healthy poly-drug users [2]; [3]): 45.00 ± 22.74 mm
VAS good effects AUC0–4h (healthy poly-drug users [2]; [3]): 167.67 ± 54.01
VAS good effects Emax (healthy poly-drug users [2]; [3]): 67.83 ± 16.51 mm
VAS headache AUC0–4h (healthy poly-drug users [2]; [3]): 10.58 ± 18.86
VAS headache Emax (healthy poly-drug users [2]; [3]): 5.83 ± 7.68 mm
VAS high AUC0–4h (healthy poly-drug users [2]; [3]): 136.92 ± 41.05
VAS high Emax (healthy poly-drug users [2]; [3]): 60.17 ± 14.96 mm
VAS intensity AUC0–4h (healthy poly-drug users [2]; [3]): 111.33 ± 36.34
VAS intensity Emax (healthy poly-drug users [2]; [3]): 47 ± 11.19 mm
VAS stimulated AUC0–4h (healthy poly-drug users [2]; [3]): 113.17 ± 40.92
VAS stimulated Emax (healthy poly-drug users [2]; [3]): 50.17 ± 17.12 mm
VAS change in lights Tmax (healthy poly-drug users [2]; oral, methylone 100–300 mg n=8, MDMA 75–100 mg n=6, median (min–max)): 1.5 (0.0–4.0) h
VAS change in lights Dunnet’s Test (healthy poly-drug users [2]; [4]): NS
VAS content Dunnet’s Test (healthy poly-drug users [2]; [4]): a, b, c
VAS different body feeling Dunnet’s Test (healthy poly-drug users [2]; [4]): a
VAS different surrounding Dunnet’s Test (healthy poly-drug users [2]; [4]): a
VAS dizziness Dunnet’s Test (healthy poly-drug users [2]; [4]): NS
VAS face flushing Dunnet’s Test (healthy poly-drug users [2]; [4]): a
VAS good effects Dunnet’s Test (healthy poly-drug users [2]; [4]): a, b
VAS headache Dunnet’s Test (healthy poly-drug users [2]; [4]): NS
VAS high Dunnet’s Test (healthy poly-drug users [2]; [4]): a, b
VAS intensity Dunnet’s Test (healthy poly-drug users [2]; [4]): a, b
VAS stimulated Dunnet’s Test (healthy poly-drug users [2]; [4]): a, b
